Tests used:
[1] = Solubility in FaSSIF; type: physicochemical
[2] = system: α1-antitrypsin; assay: End-point constant-temperature heat-induced polymerisation assay (non-denaturing PAGE); type: biochemical, human; details: constant-temperature experiment, versus absence
Method: Resistance to heat-induced polymerisation was also determined using an end-point constant-temperature assay. Plasma purified M and Z α1-antitrypsin were diluted to 0.2 mg/ml in PBS with 5% v/v glycerol, incubated with 10 μM Compound 1 (or with DMSO alone) for 2 hours and then heated in 20 μl aliquots for a further 4 hours in a thermal cycler with a 48-65° C. gradient applied across the plate. Samples were analysed on a 3-12% w/v acrylamide Bis-Tris Native-PAGE gel (Life Technologies).
Polymerisation of α1-antitrypsin occurs from a transient intermediate state known as M*, that is readily populated by the Z variant. One of the hallmarks of M* is its recognition by environment-sensitive fluorescent reporter dyes. Thermal shift assays that make use of the dye SYPRO Orange report the stability of the protein native state against heat-induced unfolding. […] Native state stability can also be probed by equilibrium unfolding using chemical denaturants, where a peak in bis-ANS fluorescence corresponds with a maximally populated unfolding intermediate.

[3] = target: T1, Z α1-antitrypsin (Homo sapiens, UniProt P01009, E366K/V237A); assay: Secretion of Z α1-antitrypsin from iPSC-derived hepatocytes (ZZ genotype); type: cell-based; design: a random insertion of the human Z α1-antitrypsin gene; from tissue; host or cells: liver and plasma of Z α1-antitrypsin transgenic mice (human Z transgene)
Method: In order to confirm that the potency and efficacy of Compound 1 in CHO-TET-ON-Z-A1AT was a reasonable estimate of what could be expected in hepatocytes with endogenous levels of expression, the effect of Compound 1 on the secretion and polymerisation of Z α1-antitrypsin was measured in iPSC-derived hepatocytes with the ZZ α1-antitrypsin genotype (Yusa et al. Nature. 2011; 478:391-4).

[4] = target: T1, Z α1-antitrypsin; assay: Intracellular Z α1-antitrypsin polymer formation in CHO-TET-ON-Z-A1AT cells (2C1 antibody); type: cell-based; design: expressed in transfected cells; host or cells: CHO Tet-On (CHO-K1) cells, doxycycline-induced
Method: CHO Tet-On cells that conditionally express Z α1-antitrypsin (Ordóñez A et al. Hepatology 2013; 57(5):2049-60.) were simultaneously treated with 0.5 μg/mL […] and various concentrations of compounds for 48 hours in 6 well plates. Cells without doxycycline or treated with 1% v/v DMSO acted as controls. The cells were lysed and intracellular Z α1-antitrypsin polymer was evaluated by ELISA sandwich with the 2C1 monoclonal antibody (Miranda et al. Hepatology. 2010; 52:1078-88). Newly synthesised α1-antitrypsin was evaluated by growing cells induced to express Z α1-antitrypsin in DMEM without methionine (Met) and cysteine (Cys) for 1 h and then labelling with 1.3 MBq of ^35S-Met/Cys for 15 min. The cells were then rinsed and incubated in chase medium containing an excess of unlabeled Met and Cys for 0, 2 and 6 h. After the chase period, the medium was collected and cells were harvested. α1-Antitrypsin from the medium and cell lysates was immunoprecipitated with a polyclonal α1-antitrypsin antibody or the 2C1 monoclonal antibody that detects polymers by splitting each sample in two equal parts. Radiolabelled proteins were re-suspended in SDS loading buffer, boiled for 5 min, separated by 10% w/v acrylamide SDS-PAGE, and quantified by autoradiography.
CHO-K1 cells were incubated with/without doxycycline to express α1-antitrypsin and with or without the small molecule of interest, fixed with 3.7% v/v formaldehyde in PBS for 15 min, permeabilised with 0.1% v/v Triton X-100 in PBS and then blocked with 10% v/v FBS in PBS for 30 min. Cells were labelled with a rabbit polyclonal antibody to total α1-antitrypsin or the 2C1 monoclonal antibody that detects polymers followed by Texan red conjugated anti-rabbit or FITC labelled anti-mouse secondary antibodies respectively. Cells were imaged using an Axiovert 200 widefield fluorescence microscope (Carl Zeiss Microimaging Inc., Thornwood, NY).
Its ability to block Z α1-antitrypsin polymerisation in the ER during folding was assessed by adding Compound 1 to CHO-TET-ON-Z-A1AT cells (Ordóñez et al. Hepatology. 2013; 57(5):2049-60) with simultaneous induction of Z α1-antitrypsin expression using doxycycline. […] To investigate whether in addition to blocking polymerisation, Compound 1 was also able to increase secretion of Z α1-antitrypsin, Z α1-antitrypsin expression was induced in CHO-TET-ON-Z-A1AT cells, Compound 1 was added, and the total Z α1-antitrypsin in the supernatant was measured by immunoassay after 6 hours.

[5] = target: T2, antichymotrypsin (Homo sapiens, UniProt P01011); assay: Serpin inhibitory activity, antichymotrypsin; type: biochemical; details: incubation with 50 μM
T2 sequence (P01011 24-423): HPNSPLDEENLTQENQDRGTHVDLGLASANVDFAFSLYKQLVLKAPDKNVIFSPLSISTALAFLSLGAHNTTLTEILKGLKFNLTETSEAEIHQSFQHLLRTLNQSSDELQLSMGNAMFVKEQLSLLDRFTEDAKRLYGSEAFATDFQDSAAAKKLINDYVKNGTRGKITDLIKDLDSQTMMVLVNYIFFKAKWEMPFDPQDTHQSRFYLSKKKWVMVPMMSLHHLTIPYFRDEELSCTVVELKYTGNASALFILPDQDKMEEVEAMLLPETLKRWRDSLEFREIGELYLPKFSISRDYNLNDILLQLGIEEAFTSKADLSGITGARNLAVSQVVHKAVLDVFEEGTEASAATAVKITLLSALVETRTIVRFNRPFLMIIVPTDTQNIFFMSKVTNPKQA
Description: In order to investigate suitability of Compound 1 for progression into in vivo studies and the potential for taking forward as a clinical candidate for testing in human, Compound 1 was profiled against a panel of in vitro assays for off-targets considered predictive of potential safety liabilities. […] The measured potency of these marginal activities were at least 10-fold below the cellular activity of Compound 1 at blocking Z α1-antitrypsin polymerisation (pEC50 6.3). Loss of inhibitory activity represents a means by which possible off-target engagement with other serpins can be evaluated. However in contrast to α1-antitrypsin upon incubation with 50 μM Compound 1 the inhibitory activity of the homologues antithrombin, neuroserpin and antichymotrypsin was not affected.

T1 sequence (P01009 25-418 V237A/E366K): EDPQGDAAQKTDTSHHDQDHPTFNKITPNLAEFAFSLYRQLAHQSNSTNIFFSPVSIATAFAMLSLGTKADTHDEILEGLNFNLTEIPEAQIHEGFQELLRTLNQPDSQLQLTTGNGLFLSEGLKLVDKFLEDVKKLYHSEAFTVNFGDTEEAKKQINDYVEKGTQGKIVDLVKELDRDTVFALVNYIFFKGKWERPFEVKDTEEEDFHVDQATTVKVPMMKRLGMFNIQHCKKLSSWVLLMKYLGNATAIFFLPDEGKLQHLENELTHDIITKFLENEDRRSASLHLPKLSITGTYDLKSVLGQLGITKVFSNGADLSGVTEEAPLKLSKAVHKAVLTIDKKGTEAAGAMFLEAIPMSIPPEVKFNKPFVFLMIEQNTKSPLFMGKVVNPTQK

In the case of `CCC[C@@H](NC(=O)c1cccc2c1CC(=O)N2)[C@@H](O)c1cccc(F)c1C` [Compound 1, N-[(1S,2R)-1-(3-fluoro-2-methylphenyl)-1-hydroxypentan-2-yl]-2-oxo-2,3-dihydro-1H-indole-4-carboxamide], the “solubility of amorphous drug substance in FaSSIF” value [1] is reported as “good solubility”, the “temperature at which oligomers are generated” value [2] is reported as “higher temperatures” and the “increase of secreted levels of Z α1-antitrypsin” value [3] is reported as “approximately 3 fold”. The EC50 ([3]; read-out: pEC50, secretion of Z α1-antitrypsin (converted)) was 316 nM, the “polymer formation in Z α1-antitrypsin expressing cells” value ([4]; 10 μM, CHO-TET-ON-Z-A1AT cells, tunicamycin experiment) was “completely abrogated” and the IC50 ([4]; CHO-TET-ON-Z-A1AT cells, doxycycline induction, 2C1 antibody, read-out: pIC50, intracellular formation of Z α1-antitrypsin polymers (converted)) was 501 nM. For the same molecule, the “intracellular formation of Z α1-antitrypsin polymers” value ([4]; CHO-TET-ON-Z-A1AT cells, in comparison with controls) was “completely blocked”, the EC50 ([4]; read-out: cellular activity at blocking Z α1-antitrypsin polymerisation (pEC50) (converted)) was 501 nM and the “inhibitory activity of antichymotrypsin” value [5] was “not affected”.

Reference: patent publication US11919856B2, “Compounds” (UCL BUSINESS LTD, priority 2018, dated 2024)
